Patent publication US8999957B2, “Heterocyclic compounds as ERK inhibitors” (Merck Sharp & Dohme Corp., priority 2010, dated 2015)
Where “and” joins values, the source holds several entries; their conditions need not be identical. Equal entries are not always repeated.

biological target: fully phosphorylated, mouse aERK2 enzyme (Mus musculus (Mouse), UniProt P63085); assay: Active ERK2 (aERK) IMAP-FP assay, condition 2; assay type: biochemical; conditions: aERK assay condition 2, 30 uM ATP; read-out: aERK IC50
Protocol: Active ERK2 (aERK) Assay: (Unless Indicated Otherwise, the Data Provided for aERK was obtained using Condition 1)
Activated ERK2 activity was determined in an IMAP-FP assay (Molecular Devices). […] Phosphorylation reactions were allowed to proceed for 40-45 minutes and were immediately quenched by the addition of 60 μL IMAP detection beads (1:1000 dilutions) in IMAP binding buffer. Plates were read on EnVision reader after 30 minutes binding equilibration.

Chain of fully phosphorylated, mouse aERK2 enzyme (P63085 whole entry): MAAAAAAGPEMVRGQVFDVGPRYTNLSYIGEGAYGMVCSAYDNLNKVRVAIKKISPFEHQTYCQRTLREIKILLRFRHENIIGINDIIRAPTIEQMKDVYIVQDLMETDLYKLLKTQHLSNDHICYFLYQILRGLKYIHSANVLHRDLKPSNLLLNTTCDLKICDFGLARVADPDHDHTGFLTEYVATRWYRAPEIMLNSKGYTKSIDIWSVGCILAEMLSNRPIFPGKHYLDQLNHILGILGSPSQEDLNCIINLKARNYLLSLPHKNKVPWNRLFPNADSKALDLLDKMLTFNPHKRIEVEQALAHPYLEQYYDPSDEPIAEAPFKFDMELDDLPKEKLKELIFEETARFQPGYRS

| Compound | IC50 |
| --- | --- |
| NC(=O)C(c1c(F)cccc1F)N1CCC[C@@H](NC(=O)c2ccc3[nH]nc(-c4ccncc4)c3c2)C1 (single isomer, unassigned) [drawing 504, N-((R)-1-((S or R)-2-amino-1-(2,6-difluorophenyl)-2-oxoethyl)piperidin-3-yl)-3-(pyridin-4-yl)-1H-indazole-5-carboxamide] | 35.3 nM |
| CNC(=O)C(c1c(F)cccc1F)N1CCC[C@@H](NC(=O)c2ccc3[nH]nc(-c4ccncc4)c3c2)C1 (single isomer, unassigned) [drawing 505, N-((R)-1-((R or S)-1-(2,6-difluorophenyl)-2-(methylamino)-2-oxoethyl)-piperidin-3-yl)-3-(pyridin-4-yl)-1H-indazole-5-carboxamide] | 451 nM |
| CNC(=O)C(c1c(F)cccc1F)N1CCC[C@@H](NC(=O)c2ccc3[nH]nc(-c4ccncc4)c3c2)C1 (single isomer, unassigned) [drawing 506, N-((R)-1-((S or R)-1-(2,6-difluorophenyl)-2-(methylamino)-2-oxoethyl)piperidin-3-yl)-3-(pyridin-4-yl)-1H-indazole-5-carboxamide] | 20.8 nM |
| CN(C)C(=O)C(c1c(F)cccc1F)N1CCC[C@@H](NC(=O)c2ccc3[nH]nc(-c4ccncc4)c3c2)C1 (single isomer, unassigned) [drawing 507, N-((R)-1-((R or S)-1-(2,6-difluorophenyl)-2-(dimethyl-amino)-2-oxoethyl)piperidin-3-yl)-3-(pyridin-4-yl)-1H-indazole-5-carboxamide] | 416 nM |
| CN(C)C(=O)C(c1c(F)cccc1F)N1CCC[C@@H](NC(=O)c2ccc3[nH]nc(-c4ccncc4)c3c2)C1 (single isomer, unassigned) [drawing 508, N-((R)-1-((S or R)-1-(2,6-difluorophenyl)-2-(dimethyl-amino)-2-oxoethyl)piperidin-3-yl)-3-(pyridin-4-yl)-1H-indazole-5-carboxamide] | 115 nM |
| COC(=O)[C@@H](c1c(F)cccc1F)N1CCC[C@@H](NC(=O)c2ccc3[nH]nc(-c4ccncc4)c3c2)C1 [(R)-methyl 2-(2,6-difluorophenyl)-2-((R)-3-(3-(pyridin-4-yl)-1H-indazole-5-carboxamido)piperidin-1-yl)acetate] | 2200 nM |
| COc1cccc(F)c1CN1CCC[C@@H](NC(=O)c2ccc3[nH]nc(C4CCOCC4)c3c2)C1 [N-[(3R)-1-(2-fluoro-6-methoxybenzyl)piperidin-3-yl]-3-(tetrahydro-2H-pyran-4-yl)-1H-indazole-5-carboxamide] | 195 nM |

Second part, the molecule after the results:

| IC50 | Compound |
| --- | --- |
| 8.4 nM | COc1cccc(F)c1CN1CCC[C@@H](NC(=O)c2ccc3[nH]nc(C4=CCS(=O)(=O)CC4)c3c2)C1 [3-(1,1-dioxido-3,6-dihydro-2H-thiopyran-4-yl)-N-[(3R)-1-(2-fluoro-6-methoxy-benzyl)piperidin-3-yl]-1H-indazole-5-carboxamide] |
| 1.3 nM | COc1cccc(F)c1CN1CCC[C@@H](NC(=O)c2ccc3[nH]nc(C4=CCOCC4)c3c2)C1 [3-(3,6-dihydro-2H-pyran-4-yl)-N-[(3R)-1-(2-fluoro-6-methoxy-benzyl)piperidin-3-yl]-1H-indazole-5-carboxamide] |
| 14 nM | COc1cccc(F)c1CN1C[C@H](NC(=O)c2ccc3[nH]nc(-c4ccnc(C)c4)c3c2)CC[C@H]1C(=O)Nc1nccs1 [N-[(3R,6S)-1-(2-fluoro-6-methoxybenzyl)-6-(1,3-thiazol-2-ylcarbamoyl)piperidin-3-yl]-3-(2-methylpyridin-4-yl)-1H-indazole-5-carboxamide] |

same assay, conditions: active ERK2; read-out: aErk2 Ic50

| Compound | IC50 |
| --- | --- |
| COc1cccc(F)c1CN1C[C@@H](NC(=O)c2ccc3[nH]nc(-c4ccnc(C)c4)c3c2)CC[C@@H]1C(=O)N1CC(O[Si](C)(C)C(C)(C)C)CO1 (stereo in doubt) [N-[(3S,6R)-6-[(4-{[tert-butyl(dimethyl)silyl]oxy}isoxazolidin-2-yl)carbonyl]-1-(2-fluoro-6-methoxybenzyl)-piperidin-3-yl]-3-(2-methylpyridin-4-yl)-1H-indazole-5-carboxamide] | 72.5 nM and 144 nM |
| Cc1cc(-c2n[nH]c3ccc(C(=O)N[C@@H]4CC[C@@H](C(=O)Nc5nccs5)N(CCc5ccccc5)C4)cc23)ccn1 [3-(2-methylpyridin-4-yl)-N-[(3R,6S)-1-(2-phenylethyl)-6-(1,3-thiazol-2-ylcarbamoyl)-piperidin-3-yl)-1H-indazole-5-carboxamide] | 133 nM |

Other lines, results leading:

| IC50 | Compound |
| --- | --- |
| 22.1 nM | COc1cccc(F)c1CN1C[C@H](NC(=O)c2ccc3[nH]nc(-c4ccnc(C)c4)c3c2)CC[C@H]1C(=O)N1CCN(C(=O)OC2(C)CC2)CC1 [1-methylcyclopropyl 4-{[(2S,5R)-1-(2-fluoro-6-methoxybenzyl)-5-({[3-(2-methylpyridin-4-yl)-1H-indazol-5-yl]carbonyl}amino)piperidin-2-yl]carbonyl}piperazine-1-carboxylate] |
| 19.1 nM | COc1cccc(F)c1CN1C[C@H](NC(=O)c2ccc3[nH]nc(-c4ccnc(C)c4)c3c2)CC[C@H]1C(=O)N1CCN(C(=O)OC(C)C)CC1 [1-methylethyl 4-{[(2S,5R)-1-(2-fluoro-6-methoxybenzyl)-5-({[3-(2-methylpyridin-4-yl)-1H-indazol-5-yl]carbonyl}amino)piperidin-2-yl]carbonyl}piperazine-1-carboxylate] |
| 74 nM | Cc1cc(-c2n[nH]c3ccc(C(=O)N[C@@H]4CC[C@@H](C(=O)N(C)C)N(Cc5c(F)cccc5F)C4)cc23)ccn1 [N-[(3R,6S)-1-(2,6-difluorobenzyl)-6-(dimethylcarbamoyl)piperidin-3-yl]-3-(2-methylpyridin-4-yl)-1H-indazole-5-carboxamide] |
| 9.6 nM | COc1cccc(F)c1CN1C[C@H](NC(=O)c2ccc3[nH]nc(-c4ccnc(C)c4)c3c2)CC[C@H]1C(=O)N1CCCCO1 [N-[(3R,6S)-1-(2-fluoro-6-methoxybenzyl)-6-(1,2-oxazinan-2-ylcarbonyl)piperidin-3-yl]-3-(2-methylpyridin-4-yl)-1H-indazole-5-carboxamide] |
| 1 nM | COc1cccc(F)c1CN1C[C@H](NC(=O)c2ccc3[nH]nc(-c4ccnc(C)c4)c3c2)CC[C@H]1C(=O)NN [N-[(3R,6S)-1-(2-fluoro-6-methoxybenzyl)-6-(hydrazinocarbonyl)piperidin-3-yl]-3-(2-methylpyridin-4-yl)-1H-indazole-5-carboxamide] |
| 10.5 nM | COc1cccc(F)c1CN1C[C@H](NC(=O)c2ccc3[nH]nc(-c4ccnc(C)c4)c3c2)CC[C@H]1C(=O)N1CCCO1 [N-[(3R,6S)-1-(2-fluoro-6-methoxybenzyl)-6-(isoxazolidin-2-ylcarbonyl)piperidin-3-yl]-3-(2-methylpyridin-4-yl)-1H-indazole-5-carboxamide] |
| 2.7 nM | CNC(=O)[C@@H]1CC[C@@H](NC(=O)c2ccc3[nH]nc(-c4ccnc(C)c4)c3c2)CN1Cc1c(F)cccc1OC [N-[(3R,6S)-1-(2-fluoro-6-methoxybenzyl)-6-(methylcarbamoyl)piperidin-3-yl]-3-(2-methylpyridin-4-yl)-1H-indazole-5-carboxamide] |
| 3.2 nM | CNC(=O)[C@@H]1CC[C@@H](NC(=O)c2ccc3[nH]nc(-c4ccncc4)c3c2)CN1Cc1c(F)cccc1OC [N-[(3R,6S)-1-(2-fluoro-6-methoxybenzyl)-6-(methylcarbamoyl)piperidin-3-yl]-3-pyridin-4-yl-1H-indazole-5-carboxamide] |
